The subject of series [1] is narcolepsy with cataplexy. Kind of series: Number of cataplexy attacks in a patient with narcolepsy with cataplexy. In kind it is in vivo, human. The following applies: single patient, 5 mg at 8 am and 5 mg at 1 pm each day. The procedure: A person is diagnosed as suffering from narcolepsy with cataplexy. They are given mazindol and instructed to take 5 mg of mazindol at 8 am and 5 mg of mazindol at 1 pm each day for three weeks. The patient is evaluated prior to treatment, and weekly to determine the MWT score, the number of cataplexy attacks, the PGI-C score, the HAM-D score, the ESS score, the NSAQ score, and the ability to concentrate on the NSAQ. After one week of treatment, the number of cataplexy attacks have decreased by 10-30%.
A person is diagnosed as suffering from narcolepsy with cataplexy. They are given mazindol and instructed to take 5 mg of mazindol at 8 am and 5 mg of mazindol at 1 pm each day for three weeks. The patient is evaluated prior to treatment, and weekly to determine the MWT score, the number of cataplexy attacks, the PGI-C score, the HAM-D score, the ESS score, the NSAQ score, and the ability to concentrate on the NSAQ. After one week of treatment, the number of cataplexy attacks have decreased by 30-60%.
A person is diagnosed as suffering from narcolepsy with cataplexy. […]
(§1) A person is diagnosed as suffering from narcolepsy with cataplexy. […] The patient is evaluated prior to treatment, and weekly to determine the MWT score, the number of cataplexy attacks, the PGI-C score, the HAM-D score, the ESS score, the NSAQ score, and the ability to concentrate on the NSAQ. […]

Series [2] relates to narcolepsy with cataplexy. Kind of series: Epworth Sleepiness Scale (ESS) score in a patient with narcolepsy with cataplexy. In kind it is in vivo, human. The following applies: single patient, 5 mg at 8 am and 5 mg at 1 pm each day. As for the experimental part:
A person is diagnosed as suffering from narcolepsy with cataplexy. They are given mazindol and instructed to take 5 mg of mazindol at 8 am and 5 mg of mazindol at 1 pm each day for three weeks. The patient is evaluated prior to treatment, and weekly to determine the MWT score, the number of cataplexy attacks, the PGI-C score, the HAM-D score, the ESS score, the NSAQ score, and the ability to concentrate on the NSAQ. After one week of treatment, the ESS score has decreased by 10-30%.
A person is diagnosed as suffering from narcolepsy with cataplexy. They are given mazindol and instructed to take 5 mg of mazindol at 8 am and 5 mg of mazindol at 1 pm each day for three weeks. The patient is evaluated prior to treatment, and weekly to determine the MWT score, the number of cataplexy attacks, the PGI-C score, the HAM-D score, the ESS score, the NSAQ score, and the ability to concentrate on the NSAQ. After one week of treatment, the ESS score has decreased by 30-60%.
A person is diagnosed as suffering from narcolepsy with cataplexy. They are given mazindol and instructed to take 5 mg of mazindol at 8 am and 5 mg of mazindol at 1 pm each day for three weeks. The patient is evaluated prior to treatment, and weekly to determine the MWT score, the number of cataplexy attacks, the PGI-C score, the HAM-D score, the ESS score, the NSAQ score, and the ability to concentrate on the NSAQ. […]

Series [3] deals with narcolepsy with cataplexy. Briefly: Maintenance of Wakefulness Test (MWT) score in a patient with narcolepsy with cataplexy. The following applies: single patient, 5 mg at 8 am and 5 mg at 1 pm each day. It is filed as in vivo, human. The procedure:
A person is diagnosed as suffering from narcolepsy with cataplexy. They are given mazindol and instructed to take 5 mg of mazindol at 8 am and 5 mg of mazindol at 1 pm […] After one week of treatment, the MWT score has increased by 10-30%.
A person is diagnosed as suffering from narcolepsy with cataplexy. They are given mazindol and instructed to take 5 mg of mazindol at 8 am and 5 mg of mazindol at 1 pm each day for three weeks. The patient is evaluated prior to treatment, and weekly to determine the MWT score, the number of cataplexy attacks, the PGI-C score, the HAM-D score, the ESS score, the NSAQ score, and the ability to concentrate on the NSAQ. After one week of treatment, the MWT score has increased by 30-60%.
as §1, §1

Series [4] deals with narcolepsy with cataplexy. Kind of series: Hamilton Depression Rating Scale (HAM-D) score in a patient with narcolepsy with cataplexy. The following applies: single patient; 5 mg at 8 am and 5 mg at 1 pm each day; after three weeks of treatment. In kind it is in vivo, human. As for the experimental part: A person is diagnosed as suffering from narcolepsy with cataplexy. They are given mazindol and instructed to take 5 mg of mazindol at 8 am and 5 mg of mazindol at 1 pm […] After three weeks of treatment, the HAM-D score has decreased by 10-30%.
A person is diagnosed as suffering from narcolepsy with cataplexy. They are given mazindol and instructed to take 5 mg of mazindol at 8 am and 5 mg of mazindol at 1 pm each day for three weeks. The patient is evaluated prior to treatment, and weekly to determine the MWT score, the number of cataplexy attacks, the PGI-C score, the HAM-D score, the ESS score, the NSAQ score, and the ability to concentrate on the NSAQ. After three weeks of treatment, the HAM-D score has decreased by 30-60%.
A person is diagnosed as suffering from narcolepsy with cataplexy. They are given mazindol and instructed to take 5 mg of mazindol at 8 am and 5 mg of mazindol at 1 pm each day for three weeks. The patient is evaluated prior to treatment, and weekly to determine the MWT score, the number of cataplexy attacks, the PGI-C score, the HAM-D score, the ESS score, the NSAQ score, and the ability to concentrate on the NSAQ. After three weeks of treatment, the HAM-D score has decreased by 60-100%.

For series [5] the following is noted: human patients; without controlled release coating; cited from earlier work.

Structures are written as SMILES. Several values for one entry are separate records, joined by “and”; a condition that tells them apart may be missing. Identical values can stand only once.

In the case of `OC1(c2ccc(Cl)cc2)c2ccccc2C2=NCCN21` (centres unmarked) [mazindol], the “decrease in the number of cataplexy attacks” value in series [1] (after one week of treatment) was 10-30% and 30-60% and 60-100%; in series [1] (after three weeks of treatment), 10-30% and 30-60% and 60-100%. Moreover, the “decrease in ESS score” value in series [2] (after one week of treatment) is 10-30% and 30-60% and 60-100%; in series [2] (after three weeks of treatment), 10-30% and 30-60% and 60-100%. The “increase in MWT score” value in series [3] (after one week of treatment) is 10-30% and 30-60% and 60-100%; in series [3] (after three weeks of treatment) it was 10-30% and 30-60% and 60-100%. In series [4], the “decrease in HAM-D score” value is 10-30% and 30-60% and 60-100%. Also, in series [5], the “time to reach a maximum plasma concentration” value is 2 to 4 h.

(Values after patent US20250360107A1, “USE OF MAZINDOL TO TREAT NERVOUS SYSTEM DISORDERS” (AXSOME THERAPEUTICS, INC., priority 2022, published 2025).)
